The molecules below were run on rat glomerular nephritis (assay: Action on rat glomerular nephritis (nephrotoxic serum-induced nephritis; urinary protein excretion)). Conditions: male WKY rats, NTS-induced nephritis; 30 mg/kg/10 ml orally twice a day for 8 days; 24 h urine collected after 7 days.
Format: in vivo
Method: (Action on rat glomerular nephritis)
Rabbits were immunized several times with a renal glomerular basement membrane fraction obtained from WKY strain rats and an adjuvant. Thereafter, blood was collected to obtain a nephrotoxic serum (NTS). This NTS was diluted by 50 times with physiological saline, and the diluted NTS was once administered intravenously to male WKY rats of 8 weeks old in a dose of 2.5 ml per 1 kg of body weight to induce nephritis. In normal group of rats, the same volume of physiological saline was intravenously administered.
In the experiment, one group consisted of 6 rats, and each compound to be tested was suspended in water with small amount of Tween 80 (trade name, produced by Nacalai Tesque Co.), and was orally administered to the test group of rats at a dose of 30 mg/kg/10 ml twice a day for 8 days. In normal group and control group of rats, the same volume of water was orally administered instead of the test compound. After 7 days, the rats were placed in metabolic cages and urine was collected for 24 hours. Concentrations of protein in urine were measured by the sulfosalicylic acid method to determine amounts of protein excreted in the urine (mg/day). The inhibition rate of excretion of protein were calculated by the following equation. [formula]

| SMILES | Inhibition rate (of excretion of protein in urine) [%] |
| --- | --- |
| C=CS(=O)(=O)NCC1Cc2ccc(-c3ccc(=O)[nH]n3)cc2C1 (stereo not drawn) [Example 4] | 61.5 |
| CCS(=O)(=O)NCCC1Cc2ccc(-c3ccc(=O)[nH]n3)cc2C1 (stereo not drawn) [Example 6] | 65.1 |
| CCCS(=O)(=O)NCCC1Cc2ccc(-c3ccc(=O)[nH]n3)cc2C1 (stereo not drawn) [Example 7] | 77.2 |
| C=CS(=O)(=O)NCCC1Cc2ccc(-c3ccc(=O)[nH]n3)cc2C1 (stereo not drawn) [Example 8] | 71.6 |
| C=CS(=O)(=O)NCCCCC1Cc2ccc(-c3ccc(=O)[nH]n3)cc2C1 (stereo not drawn) [Example 12] | 67.5 |
| C=CS(=O)(=O)NCCCC1Cc2ccc(-c3ccc(=O)[nH]n3)cc2C1 (stereo not drawn) [Example 19] | 91.8 |

Source: patent US5686452A, “Indane derivative and processes for preparing the same” (Tanabe Seiyaku Co., Ltd., priority 1994, dated 1997)
